Consider 6 compounds from patent publication US12708671B2, “Nanometric pharmaceutical composition in the form of liposomes or nanoemulsion containing specific sequences of interference RNA” (UNIVERSIDADE FEDERAL DO RIO GRANDE DO SUL, priority 2019, dated 2026).

One data set deals with C6 glioma cells. In words: C6 glioma cell proliferation by counting in newbauer chamber. It counts as cell-based, rat. As to conditions: 100 μM, 48 h, compared to the control. On the procedure:
Primary astrocyte cultures were prepared from scratch. The cortex of newborn Wistar rats (1-2 days old) were removed and mechanically dissociated in a balanced saline solution free of Ca^+2 and Mg^+2 (pH 7.4), containing 137 mM NaCl, 5, 36 mM KCl, 0.27 mM Na2HPO4, 1.1 mM KH2PO4, and 6.1 mM glucose. After centrifugation at 1000 g for 5 min, the pellet was resuspended in culture medium (pH 7.6) containing […], 8.39 mM of HEPES buffer (4-(2-hydroxyethyl)-1-acid piperazine ethanesulfonic) (pH 7.6), 23.8 mM NaHCO3, 0.1% fungizone® (Amphotericin B, antifungal), 0.032% antibiotic garamycin and 10% FBS. […]
After treatment with AMPCP, the medium was removed, the cells were washed with PBS buffer solution (phosphate buffered saline, solution containing NaCl and NaHPO4), trypsinized with 200 μL of 0.25% trypsin solution and counted in a newbauer chamber. […] The enzymatic activity of C6 cells was determined in an incubation medium (2 mM MgCl2, 120 mM NaCl, 5 mM KCl, 10 mM glucose, 20 mM HEPES [pH 7.4], and 2 mM AMP [adenosine monophosphate]) at 37° C. for 10 min, where the inorganic phosphate released by the action of CD73 was measured and the protein concentration was evaluated by the methods of malachite green and Coomassie Blue, respectively. Specific activity was expressed as μmol Pi released/min/mg protein. […]

In data set [1] the target is T1, ecto-5′-nucleotidase/CD73 (Rattus norvegicus, UniProt P21588).
T1 construct: endogenous in cells; host or cells: C6 glioma cells (rat)
T1 sequence (P21588 29-551): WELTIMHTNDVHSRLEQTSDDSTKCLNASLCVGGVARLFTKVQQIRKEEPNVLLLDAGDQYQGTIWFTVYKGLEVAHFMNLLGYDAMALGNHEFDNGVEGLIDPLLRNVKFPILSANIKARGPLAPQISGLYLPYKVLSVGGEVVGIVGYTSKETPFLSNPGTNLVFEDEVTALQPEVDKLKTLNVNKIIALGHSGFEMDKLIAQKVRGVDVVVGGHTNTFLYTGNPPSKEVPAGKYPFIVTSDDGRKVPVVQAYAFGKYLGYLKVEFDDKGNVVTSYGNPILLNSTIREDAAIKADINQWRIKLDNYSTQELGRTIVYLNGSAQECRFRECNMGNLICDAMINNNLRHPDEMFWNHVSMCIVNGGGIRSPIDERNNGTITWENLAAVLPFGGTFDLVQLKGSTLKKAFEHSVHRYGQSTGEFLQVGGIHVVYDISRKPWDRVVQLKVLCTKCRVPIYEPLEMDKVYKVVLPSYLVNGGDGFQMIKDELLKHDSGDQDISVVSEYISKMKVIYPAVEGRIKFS
In words: ecto-5′-nucleotidase/CD73 enzymatic activity (AMP hydrolysis, malachite green) in C6 glioma. It counts as cell-based, Rattus norvergicus. As to conditions: for reduction of AMP hydrolysis: C6 glioma; for reduction of AMPase activity: C6 glioma cells silenced with NE/siRNA-CD73 complexes. On the procedure:
After treatment with AMPCP, the medium was removed, the cells were washed with PBS buffer solution (phosphate buffered saline, solution containing NaCl and NaHPO4), trypsinized with 200 μL of 0.25% trypsin solution and counted in a newbauer chamber. Once the cells were treated, enzyme activity, cell viability and immunocytochemistry assays were performed for CD73, in order to determine the reliability of the tests with the NE/siRNA or Lipofectamine®/siRNA complexes. The enzymatic activity of C6 cells was determined in an incubation medium (2 mM MgCl2, 120 mM NaCl, 5 mM KCl, 10 mM glucose, 20 mM HEPES [pH 7.4], and 2 mM AMP [adenosine monophosphate]) at 37° C. for 10 min, where the inorganic phosphate released by the action of CD73 was measured and the protein concentration was evaluated by the methods of malachite green and Coomassie Blue, respectively. Specific activity was expressed as μmol Pi released/min/mg protein.
Thus, it was evaluated how much the selective ecto-5′nucleotidase/CD73 inhibitor, AMPCP, could affect the proliferation of C6 glioma cells. The cells were exposed to increasing concentrations of AMPCP (1, 10 and 100 μM) and after 48 h cell proliferation was determined by counting in a newbauer chamber. In parallel, the activity of the enzyme ecto-5′nucleotidase/CD73 was analyzed by measuring the hydrolysis of AMP to adenosine (ADO) using the malachite green method.
For this purpose, specific siRNA-CD73 sequences were developed (siRNA-CD73-961 and siRNA-CD73-980; Table 1) and their functionality/specificity was assessed by transfecting C6 cells using Lipofectamine® according to the manufacturer's instructions. After 48 h of transfection, CD73 expression and enzymatic activity were evaluated by immunocytochemistry and AMP hydrolysis, respectively.
After the physical-chemical characterization and the optimization of the transfection, the effectiveness of the NE/siRNA-CD73-961 and NE/siRNA-CD73-980 complexes in silencing CD73 in C6 glioma was analyzed through immunocytochemical and AMP hydrolysis experiments.

Data set [2] has as its system U87MG glioma cells. In words: U87MG cell viability with temozolomide after CD73 silencing. It is filed as cell-based. Particulars: Homo sapiens, U-87 MG, U87MG previously silenced for CD73 with siRNA-CD73-441, read-out: reduction of cell viability. On the procedure:
The participation of CD73 in chemoresistance was also investigated (FIG. 13). U87MG glioma cells were treated with temozolomide (100 μM) alone or in combination with siRNA-CD73-441. Temozolomide reduced cell viability by an average of 20% in glioma previously silenced for CD73.

Data set [3] has as its system U87MG glioma cells. As to the kind of experiment: U87MG cell proliferation by counting in Neubauer chamber. It is filed as cell-based, human. On the procedure: To assess the impact of CD73 silencing on U87MG glioma cell proliferation in culture, cells were silenced using the siRNA-CD73-441 sequence and counted using a Neubauer chamber.
For data set [4], the system named is U87MG glioma cells. In words: U87MG migration assay. It counts as cell-based, human.
The subject of data set [5] is CD73. In words: CD73 protein expression in U87MG after silencing. It counts as cell-based, human. On the procedure:
(§1) The siRNA-CD73-441 sequence to silence human CD73 was evaluated for its efficiency.

Data set [6] has as its system CD73. As to the kind of experiment: CD73 enzymatic activity in U87MG after silencing. It counts as cell-based, human. On the procedure: as §1

With `Nc1ncnc2c1ncn2[C@@H]1O[C@H](COP(=O)(O)CP(=O)(O)O)[C@@H](O)[C@H]1O` [AMPCP, adenosine 5′-(α, βmethylene) -diphosphate], the “decrease in cell proliferation” value in the data set on C6 glioma cells was 30%. Besides, the “reduction of AMP hydrolysis” value in data set [1] (10 μM) is 40%; in data set [1] (100 μM), 50%.

As to `Cn1nnc2c(C(N)=O)ncn2c1=O` [Temozolomide, temozolomide], the cytotoxicity at 100 µM with U87MG glioma cells [2] was 20%.

Consider `Nc1ncnc2c1ncn2[C@@H]1O[C@H](CO)[C@@H](O)[C@H]1O` [adenosine], for which the “proliferation of CD73-silenced U87MG cells” value in the data set on U87MG glioma cells [3] (ADO treatment of cells silenced with siRNA-CD73-441) is “restored proliferation”. The “migration of U87MG glioma cells” value in the data set with U87MG glioma cells [4] (24 hours of analysis) is listed as “induced a sustained migration”. For the same compound, the “migratory potential of CD73-silenced glioblastoma cells” value with U87MG glioma cells [4] (adenosine treatment of cells silenced with siRNA-CD73-441) is “promoted recovery of the migratory potential”.

As for “siRNA-CD73-441: siRNA sequence to silence human CD73, SEQ ID No: 3, Table 1 (GGGGCCACUAGCAUCUCAAAUUUGAGAUGCUAGUGGCCCCUU; listed as RNA, chemistry not given here)”, the CD73 protein expression entry in the data set with CD73 [5] is “efficient in decreasing”. Moreover, the “inhibition of U87MG cell proliferation” value in the data set with U87MG glioma cells [3] (CD73 silencing) was ~ 40%. In addition, in the data set with CD73 [6], the “decrease of CD73 enzymatic activity” value is recorded as ~ 90%. For the same compound, the glioma cell migration result with U87MG glioma cells [4] (U87MG, CD73 silencing) was “impaired glioma cell migration”.

For “siRNA-CD73-961: interference RNA sequence for CD73 (gene ID: 58813, Rattus norvergicus), SEQ ID No: 1, Table 1 (GCCAUCAAAGCAGACAUUAACUAAUGUCUGCUUUGAUGGCUG; listed as RNA, chemistry not given here)”, the “reduction of AMPase activity” value in data set [1] is 70%.

Turning to “siRNA-CD73-980: interference RNA sequence for CD73 (gene ID: 58813, Rattus norvergicus), SEQ ID No: 2, Table 1 (ACCAGUGGAGGAUAAAAUUAGAAUUUUAUCCUCCACUGGUUA; listed as RNA, chemistry not given here)”, in data set [1], the “reduction of AMPase activity” value came to 63%.
